In patent publication US20230287051A1, “INHIBITORS OF COMPLEMENT FACTOR C3 AND THEIR MEDICAL USES” (ZP SPV 3 K/S, priority 2020, published 2023):
Numbered stars: 1 amine (or outer) side, 2 acyl side, 3 side chain; on linkers, the order of the positions; unused ones are H or OH. Bridge positions count the residues as written; N and C are the ends. Square brackets hold non-standard residues; d marks the D form. Side chains are listed from the residue outwards. Peptide text beside a SMILES is read from it. * marks the point of attachment. Trp(1-Me) = Cn1cc(C[C@H](N)C(=O)O)c2ccccc21; C18 diacid = O=C(O)CCCCCCCCCCCCCCCCC(=O)*; γGlu = O=C(O)[C@H](CCC(=O)[*:2])N[*:1]; AEEA = NCCOCCOCC(=O)O; CH2 = C([*:1])[*:2]; Sar = CNCC(=O)O

Each compound was assayed on classical complement pathway (assay: In vitro haemolysis assay (inhibition of classical complement pathway)). Conditions: human serum, sensitized sheep RBC, 30 minutes at 37° C., absorbance at 405 nm, n=>2; read-out: IC50, inhibition of hemolysis.
Type: cell-based
Procedure: The in vitro effect of some of the compounds described herein was assessed by measuring their inhibitory effect of the classical complement pathway in a haemolysis assay.
Briefly, compounds described herein and reference compounds were dissolved in DMSO and diluted in Tris/Casein Assay Buffer (10 mM Tris, 145 mM NaCl, 0.5 mM MgCl2, 0.15 mM CaCl2, and 0.1% W/V casein, adjusted to pH 7.4) as 9-point serial dilutions in a 96-well plate. Sensitized sheep red blood cells (RBC) coated with rabbit anti-sheep erythrocyte antiserum (Complement Technology, Inc., TX, USA) were washed in Tris/asein Assay Buffer. 50 μL from each well of diluted compound was added to a 96-well plate containing 50 μL diluted human serum (Complement Technology, Inc., TX, USA) and incubated for 15 minutes at room temperature. The serum dilution factor was optimized for every serum batch to obtain 70-90% of maximal haemolysis using the protocol. Then 50 μL sensitized sheep RBCs were added to all wells ([…]).
After 30 minutes of incubation at 37° C. with gentle agitation, the reaction was stopped by addition of 50 μL Tris STOP Buffer per well (10 mM EDTA, 10 mM Tris, 145 mM NaCl adjusted to pH 7.4). The RBCs were then removed by centrifugation and the resulting supernatant measured for hemolysis by absorbance at 405 nm.
The response was normalized relative to a positive and negative control (vehicle) to calculate the IC50 (nM) from the concentration response curve using the 4-parameter logistic (4PL) nonlinear model for curve fitting (Table 2). All values are based on n=>2 independent determinations.
With “Ac-KSGEF[C(1)]I[1-Me-Trp]QDW[Sar]EHR[C(1)]TEGE[Peg3][Peg3]-K([17-Carboxy-heptadecanoyl][yGlu]G[yGlu])-NH2 [Compound 21]” the IC50 was < 100 nM.
For “Ac-SEY[C(1)]I[1-Me-Trp]QDW[Sar]EHR[C(1)]TEGE[Peg3]ES-K([17-Carboxy-heptadecanoyl][yGlu])-NH2 [Compound 18]”, the IC50 was < 250 nM.
For `CC[C@H](C)[C@@H]1NC(=O)[C@@H](NC(=O)[C@H](Cc2ccccc2)NC(=O)[C@@H](NC(=O)[C@H](CCC(N)=O)NC(=O)[C@H](CCC(=O)O)NC(=O)[C@H](CO)NC(=O)[C@H](CCC(=O)O)NC(C)=O)C(C)C)CSCSC[C@@H](C(=O)N[C@H](C(=O)N[C@@H](CCC(=O)O)C(=O)NCC(=O)N[C@@H](CCC(=O)O)C(=O)NCCOCCOCC(=O)NCCOCCOCC(=O)N[C@@H](CCCCNC(=O)CC[C@H](NC(=O)CNC(=O)CC[C@H](NC(=O)CCCCCCCCCCCCCCCCC(=O)O)C(=O)O)C(=O)O)C(N)=O)[C@@H](C)O)NC(=O)[C@H](CCCNC(=N)N)NC(=O)[C@H](Cc2c[nH]cn2)NC(=O)[C@H](CCC(=O)O)NC(=O)CN(C)C(=O)[C@H](Cc2c[nH]c3ccccc23)NC(=O)[C@H](CC(=O)O)NC(=O)[C@H](CCC(N)=O)NC(=O)[C@H](Cc2cn(C)c3ccccc23)NC1=O` [Compound 24, Ac-ESEQVF[C(1)]I[1-Me-Trp]QDW[Sar]EHR[C(1)]TEGE[Peg3][Peg3]-K([17-Carboxy-heptadecanoyl][yGlu]G[yGlu])-NH2] (Ac-ESEQVFCI[Trp(1-Me)]QDW[Sar]EHRCTEGE[AEEA][AEEA]K([γGlu-Gly-γGlu-C18 diacid])-NH2; linker 7-17 via CH2), the IC50 was < 100 nM.
With “Ac-SEF[C(1)]I[1-Me-Trp]QDWGEHR[C(1)]TEGE[Peg3]ES-K([17-Carboxy-heptadecanoyl]-[yGlu]-NH2 [Compound 5]” the IC50 was < 500 nM.
In the case of `CC[C@H](C)[C@@H]1NC(=O)[C@@H](NC(=O)[C@H](Cc2ccccc2)NC(=O)[C@H](CCC(=O)O)NC(=O)[C@H](CCC(N)=O)NC(=O)[C@H](CCCCN)NC(=O)[C@H](CO)NC(C)=O)CSCSC[C@@H](C(=O)N[C@H](C(=O)N[C@@H](CCC(=O)O)C(=O)NCC(=O)N[C@@H](CCC(=O)O)C(=O)NCCOCCOCC(=O)NCCOCCOCC(=O)N[C@@H](CCCCNC(=O)CC[C@H](NC(=O)CNC(=O)CC[C@H](NC(=O)CCCCCCCCCCCCCCCCC(=O)O)C(=O)O)C(=O)O)C(N)=O)[C@@H](C)O)NC(=O)[C@H](CCCNC(=N)N)NC(=O)[C@H](Cc2c[nH]cn2)NC(=O)[C@H](CCC(=O)O)NC(=O)CN(C)C(=O)[C@H](Cc2c[nH]c3ccccc23)NC(=O)[C@H](CC(=O)O)NC(=O)[C@H](CCC(N)=O)NC(=O)[C@H](Cc2cn(C)c3ccccc23)NC1=O` [Compound 26, Ac-SKQEF[C(1)]I[1-Me-Trp]QDW[Sar]EHR[C(1)]TEGE[Peg3][Peg3]-K([17-Carboxy-heptadecanoyl][yGlu]G[yGlu])-NH2] (Ac-SKQEFCI[Trp(1-Me)]QDW[Sar]EHRCTEGE[AEEA][AEEA]K([γGlu-Gly-γGlu-C18 diacid])-NH2; linker 6-16 via CH2), the IC50 is reported as < 100 nM.
In the case of `CC[C@H](C)[C@@H]1NC(=O)[C@@H](NC(=O)[C@H](Cc2ccccc2)NC(=O)[C@H](CCC(=O)O)NC(=O)[C@H](CO)NC(C)=O)CSCSC[C@@H](C(=O)N[C@H](C(=O)NCC(=O)N[C@@H](C)C(=O)N[C@@H](CCC(=O)O)C(=O)N[C@@H](CO)C(N)=O)[C@@H](C)O)NC(=O)[C@H](CCCNC(=N)N)NC(=O)[C@H](Cc2c[nH]cn2)NC(=O)[C@H](CCC(=O)O)NC(=O)CNC(=O)[C@H](Cc2c[nH]c3ccccc23)NC(=O)[C@H](CC(=O)O)NC(=O)[C@H](CCC(N)=O)NC(=O)[C@H](Cc2cn(C)c3ccccc23)NC1=O` [Compound 1, Ac-SEF[C(1)]I[[1-Me-Trp]QDWGEHR[C(1)]TGAES-[NH2]] (Ac-SEFCI[Trp(1-Me)]QDWGEHRCTGAES-NH2; linker 4-14 via CH2), the IC50 is reported as < 100 nM.
`CC[C@H](C)[C@@H]1NC(=O)[C@@H](NC(=O)[C@H](Cc2ccccc2)NC(=O)[C@H](CCC(=O)O)NC(=O)[C@H](CO)NC(C)=O)CSCSC[C@@H](C(=O)N(C)CC(=O)N[C@@H](CCC(=O)O)C(=O)NCC(=O)N[C@@H](CCC(=O)O)C(=O)NCCOCCOCC(=O)NCCOCCOCC(=O)N[C@@H](CCCCNC(=O)CC[C@H](NC(=O)CNC(=O)CC[C@H](NC(=O)CCCCCCCCCCCCCCCCC(=O)O)C(=O)O)C(=O)O)C(N)=O)NC(=O)[C@H](CCCNC(=N)N)NC(=O)[C@H](Cc2c[nH]cn2)NC(=O)[C@H](CCC(=O)O)NC(=O)CNC(=O)[C@H](Cc2c[nH]c3ccccc23)NC(=O)[C@H](CC(=O)O)NC(=O)[C@H](CCC(N)=O)NC(=O)[C@H](Cc2cn(C)c3ccccc23)NC1=O` [Compound 2, Ac-SEF[C(1)]I[1-Me-Trp]QDWGEHR[C(1)][Sar]EGE[Peg3][Peg3]-K([17-Carboxy-heptadecanoyl][yGlu]G[yGlu])-NH2] (Ac-SEFCI[Trp(1-Me)]QDWGEHRC[Sar]EGE[AEEA][AEEA]K([γGlu-Gly-γGlu-C18 diacid])-NH2; linker 4-14 via CH2) was tested, and the IC50 was < 500 nM.
`CC[C@H](C)[C@@H]1NC(=O)[C@@H](NC(=O)[C@@H](NC(=O)[C@@H](Cc2ccc(O)cc2)NC(C)=O)[C@@H](C)CC)CSCSC[C@@H](C(=O)N[C@H](C(=O)N[C@@H](CCC(=O)O)C(=O)NCC(=O)N[C@@H](CCC(=O)O)C(=O)NCCOCCOCC(=O)N[C@@H](CCC(=O)O)C(=O)N[C@@H](CO)C(=O)N[C@@H](CCCCNC(=O)CC[C@H](NC(=O)CCCCCCCCCCCCCCCCC(=O)O)C(=O)O)C(N)=O)[C@@H](C)O)NC(=O)[C@H](CCCNC(=N)N)NC(=O)[C@H](Cc2c[nH]cn2)NC(=O)[C@H](CCC(=O)O)NC(=O)CN(C)C(=O)[C@H](Cc2c[nH]c3ccccc23)NC(=O)[C@H](CC(=O)O)NC(=O)[C@H](CCC(N)=O)NC(=O)[C@H](Cc2cn(C)c3ccccc23)NC1=O` [Compound 15, Ac-{d}YI[C(1)]I[1-Me-Trp]QDW[Sar]EHR[C(1)]TEGE[Peg3]ES-K([17-Carboxy-heptadecanoyl][yGlu])-NH2] (Ac-[dY]ICI[Trp(1-Me)]QDW[Sar]EHRCTEGE[AEEA]ESK([γGlu-C18 diacid])-NH2; linker 3-13 via CH2) was tested, and the IC50 was < 250 nM.
With “Ac-SEF[C(1)]I[1-Me-Trp]QDWGEHR[C(1)][Sar]EGA-K([17-Carboxy-heptadecanoyl]-[yGlu]G[Peg3][yGlu][Peg3]-NH2 [Compound 4]” the IC50 was < 500 nM.
With “Ac-SEF[C(1)]IYQDW[Sar]EHR[C(1)]TEGE[Peg3]ES-K([17-Carboxy-heptadecanoy!][yGlu])-NH2 [Compound 17]” the IC50 was < 500 nM.
“Ac-SEF[C(1)]I[1-Me-Trp]QDW[Sar]EHR[C(1)][Sar]E[Peg3][Peg3]-K([17-Carboxy-heptadecanoyl]-[yGlu]G[yGlu]-NH2 [Compound 8]” was tested, and the IC50 was < 500 nM.
In the case of “Ac-EGSAY[C(1)]I[1-Me-Trp]QDWGEHR[C(1)][Sar]EK[yGlu]-K([17-Carboxy-heptadecanoyl][yGlu][Peg3][Peg3])-NH2 [Compound 3]”, the IC50 is reported as < 500 nM.
For “Ac-SEF[C(1)]I[1-Me-Trp]QDWGEHR[C(1)]TGAES[Peg3][Peg3]-K([17-Carboxy-heptadecanoyl][yGlu]G[yGlu])-NH2 [Compound 14]”, the IC50 was < 250 nM.
For `CC[C@H](C)[C@@H]1NC(=O)[C@@H](NC(=O)[C@H](Cc2ccccc2)NC(=O)[C@H](CCC(=O)O)NC(C)=O)CSCSC[C@@H](C(=O)N[C@H](C(=O)N[C@@H](CCC(=O)O)C(=O)N[C@@H](C)C(=O)NCCOCCOCC(=O)NCCOCCOCC(=O)N[C@@H](CCCCNC(=O)CC[C@H](NC(=O)CNC(=O)CC[C@H](NC(=O)CCCCCCCCCCCCCCCCC(=O)O)C(=O)O)C(=O)O)C(N)=O)[C@@H](C)O)NC(=O)[C@H](CCCNC(=N)N)NC(=O)[C@H](Cc2c[nH]cn2)NC(=O)[C@H](CCC(=O)O)NC(=O)CN(C)C(=O)[C@H](Cc2c[nH]c3ccccc23)NC(=O)[C@H](CC(=O)O)NC(=O)[C@H](CCC(N)=O)NC(=O)[C@H](Cc2cn(C)c3ccccc23)NC1=O` [Compound 12, Ac-EF[C(1)]I[1-Me-Trp]QDW[Sar]EHR[C(1)]TEA[Peg3][Peg3]-K([17-Carboxy-heptadecanoyl][yGlu]G[yGlu])-NH2] (Ac-EFCI[Trp(1-Me)]QDW[Sar]EHRCTEA[AEEA][AEEA]K([γGlu-Gly-γGlu-C18 diacid])-NH2; linker 3-13 via CH2), the IC50 was < 100 nM.
In the case of `CC[C@H](C)[C@@H]1NC(=O)[C@@H](NC(=O)[C@H](Cc2ccccc2)NC(=O)[C@H](CCC(=O)O)NC(=O)[C@H](CO)NC(C)=O)CSCSC[C@@H](C(=O)N(C)CC(=O)N[C@@H](CCC(=O)O)C(=O)NCCOCCOCC(=O)NCCOCCOCC(=O)N[C@@H](CCCCNC(=O)CC[C@H](NC(=O)CNC(=O)CC[C@H](NC(=O)CCCCCCCCCCCCCCCCC(=O)O)C(=O)O)C(=O)O)C(N)=O)NC(=O)[C@H](CCCNC(=N)N)NC(=O)[C@H](Cc2c[nH]cn2)NC(=O)[C@H](CCC(=O)O)NC(=O)CN(C)C(=O)[C@H](Cc2c[nH]c3ccccc23)NC(=O)[C@H](CC(=O)O)NC(=O)[C@H](CCC(N)=O)NC(=O)[C@H](Cc2cn(C)c3ccccc23)NC1=O` [Compound 7] (Ac-SEFCI[Trp(1-Me)]QDW[Sar]EHRC[Sar]E[AEEA][AEEA]K([γGlu-Gly-γGlu-C18 diacid])-NH2; linker 4-14 via CH2), the IC50 is reported as < 500 nM.
“Ac-SEFC(2)I[1-Me-Trp]QDWGEHRC(2)TGAES-NH2 [Compound 31]” was tested, and the IC50 was < 250 nM.
With “Ac-SEF[C(1)]IWQDW[Sar]EHR[C(1)]TEGE[Peg3]ES-K([17-Carboxy-heptadecanoyl][yGlu])-NH2 [Compound 16]” the IC50 was < 1000 nM.
